Measured values taken from patent US20170275270A1, “BENZYL SUBSTITUTED INDAZOLES” (Bayer Pharma Aktiengesellschaft, priority 2014, published 2017).
Where two headings read alike, the source gives them in different places.

Target: T1, catalytic domain of human Bub1 (amino acids 704-1085) (Homo sapiens, UniProt O43683)
T1 construct: catalytic domain of human Bub1 (amino acids 704-1085); His6 (N); made in house; host or cells: Hi5 insect cells
Assay: Bub1 kinase assay (TR-FRET)
Format: biochemical
Protocol: To this end, 100-fold concentrated compound solutions (in DMSO) were previously prepared by serial dilution (1:3.4) of 2 mM stocks in a clear low volume 384-well source microtiter plate (Greiner Bio-One, Frickenhausen, Germany), from which 50 nL of compounds were transferred into a black low volume test microtiter plate from the same supplier. […] The resulting mixture (5 μL final volume) was incubated at 22° C. during 60 min., and the reaction was stopped by the addition of 5 μL of an aqueous EDTA-solution (50 mM EDTA, in 100 mM HEPES pH 7.5 and 0.2% (w/v) bovine serum albumin) which also contained the TR-FRET detection reagents (0.2 μM streptavidin-XL665 [Cisbio Bioassays, Codolet, France] and 1 nM anti-phosho-Serine antibody [Merck Millipore, cat. #35-001] and 0.4 nM LANCE EU-W1024 labeled anti-mouse IgG antibody [Perkin-Elmer, product no. AD0077, alternatively a Terbium-cryptate-labeled anti-mouse IgG antibody from Cisbio Bioassays can be used]). The stopped reaction mixture was further incubated 1 h at 22° C. in order to allow the formation of complexes between peptides and detection reagents. Subsequently, the amount of product was evaluated by measurement of the resonance energy transfer from the Eu-chelate-antibody complex recognizing the Phosphoserine residue to the streptavidin-XL665 bound to the biotin moiety of the peptide. […] IC50 values were calculated by fitting the normalized inhibition data to a 4-parameter logistic equation (Minimum, Maximum, IC50, Hill; Y=Max+(Min−Max)/(1+(X/IC50) Hill)).

[1] = Biological Assay 1: Bub1 kinase assay median IC50, 10 μM ATP
[2] = 10 μM ATP, read-out: Biological Assay 1: Bub1 kinase assay median IC50

T1 sequence (O43683 704-1085): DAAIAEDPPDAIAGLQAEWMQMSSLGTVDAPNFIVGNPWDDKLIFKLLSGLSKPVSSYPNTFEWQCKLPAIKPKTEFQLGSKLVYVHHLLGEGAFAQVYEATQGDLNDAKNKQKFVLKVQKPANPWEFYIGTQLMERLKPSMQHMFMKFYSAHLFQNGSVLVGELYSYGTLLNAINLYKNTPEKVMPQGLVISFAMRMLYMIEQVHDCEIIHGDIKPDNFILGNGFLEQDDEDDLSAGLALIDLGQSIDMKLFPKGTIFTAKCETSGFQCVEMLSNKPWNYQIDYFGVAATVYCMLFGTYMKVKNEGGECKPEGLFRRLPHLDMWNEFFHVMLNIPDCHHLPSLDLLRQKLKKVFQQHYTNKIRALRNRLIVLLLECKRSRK

Row | IC50 [1] [nM] | IC50 [2] [nM] | SMILES
1 | 10 | – | COCCOc1cc(F)c(Cn2nc(-c3nc(CN4CCOCC4)cc(Nc4ccncc4Cl)n3)c3ccccc32)c(F)c1 [Example 2-12-40, N-(3-chloropyridin-4-yl)-2-{1-[2,6-difluoro-4-(2-methoxyethoxy)benzyl]-1H-indazol-3-yl}-6-(morpholin-4-ylmethyl)pyrimidin-4-amine]
2 | 1100 | – | CCOc1cc(F)c(Cn2nc(-c3nc(CN4CCOCC4)cc(Nc4ccnc(O)c4)n3)c3ccccc32)c(F)c1 [Example 2-12-46, 4-({2-[1-(4-ethoxy-2,6-difluorobenzyl)-1H-indazol-3-yl]-6-(morpholin-4-ylmethyl)pyrimidin-4-yl}amino)pyridin-2-ol]
3 | – | 8.8 | COCc1cc(Nc2ccncc2OC)nc(-c2nn(Cc3c(F)cc(OCCO)cc3F)c3ccccc23)n1 [Example 2-12-49, 2-{3,5-difluoro-4-[(3-{4-(methoxymethyl)-6-[(3-methoxypyridin-4-yl)amino]pyrimidin-2-yl}-1H-indazol-1-yl)methyl]phenoxy}eth-anol]
4 | 44 | – | COCCOc1cc(F)c(Cn2nc(-c3nc4c(c(Nc5ccnc(C)n5)n3)CCC4)c3ccccc32)c(F)c1 [Example 2-12-55, 2-{1-[2,6-difluoro-4-(2-methoxyethoxy)benzyl]-1H-indazol-3-yl}-N-(2-methylpyrimidin-4-yl)-6,7-dihydro-5H-cyclopenta[d]pyrimidin-4-amine]
5 | 7 | – | COCCOc1cc(F)c(Cn2nc(-c3nc4c(c(Nc5ccncn5)n3)CCC4)c3ccccc32)c(F)c1 [Example 2-12-56, 2-{1-[2,6-difluoro-4-(2-methoxyethoxy)benzyl]-1H-indazol-3-yl}-N-(pyrimidin-4-yl)-6,7-dihydro-5H-cyclopenta[d]pyrimidin-4-amine]
6 | 130 | – | COCCOc1cc(F)c(Cn2nc(-c3nc4c(c(Nc5cc(C)ncc5C)n3)CCC4)c3ccccc32)c(F)c1 [Example 2-12-57, 2-{1-[2,6-difluoro-4-(2-methoxyethoxy)benzyl]-1H-indazol-3-yl}-N-(2,5-dimethylpyridin-4-yl)-6,7-dihydro-5H-cyclopenta[d]pyrimidin-4-amine]
7 | 17 | – | COCCOc1cc(F)c(Cn2nc(-c3nc4c(c(Nc5cc(C)ncc5F)n3)CCC4)c3ccccc32)c(F)c1 [Example 2-12-58, 2-{1-[2,6-difluoro-4-(2-methoxyethoxy)benzyl]-1H-indazol-3-yl}-N-(5-fluoro-2-methylpyridin-4-yl)-6,7-dihydro-5H-cyclopenta[d]pyrimidin-4-amine]
8 | 9.9 | – | COCCOc1cc(F)c(Cn2nc(-c3nc4c(c(Nc5ccncc5OC)n3)CCCCC4)c3ccccc32)c(F)c1 [Example 2-12-70, 2-{1-[2,6-difluoro-4-(2-methoxyethoxy)benzyl]-1H-indazol-3-yl}-N-(3-methoxypyridin-4-yl)-6,7,8,9-tetrahydro-5H-cyclohepta[d]pyrimidin-4-amine]
9 | 75 | – | COCCOc1cc(F)c(Cn2nc(-c3nc(C)cc(Nc4ccnc(C)n4)n3)c3ccccc32)c(F)c1 [Example 2-12-71, 2-{1-[2,6-difluoro-4-(2-methoxyethoxy)benzyl]-1H-indazol-3-yl}-6-methyl-N-(2-methylpyrimidin-4-yl)pyrimidin-4-amine]
10 | 670 | – | COCCOc1cc(F)c(Cn2nc(-c3nc(Nc4ccnc(C)n4)cc(C(C)C)n3)c3ccccc32)c(F)c1 [Example 2-12-72, 2-{1-[2,6-difluoro-4-(2-methoxyethoxy)benzyl]-1H-indazol-3-yl}-6-isopropyl-N-(2-methylpyrimidin-4-yl)pyrimidin-4-amine]
11 | – | 15 | COCCOc1cc(F)c(Cn2nc(-c3nc(Nc4ccncc4OC)cc(C(C)C)n3)c3ccccc32)c(F)c1 [Example 2-12-73, 2-{1-[2,6-difluoro-4-(2-methoxyethoxy)benzyl]-1H-indazol-3-yl}-6-isopropyl-N-(3-methoxypyridin-4-yl)pyrimidin-4-amine]
